Test results taken from US10925876B2, “Methods for using triazolo-pyrazinyl soluble guanylate cyclase activators in fibrotic disorders” (Merck Sharp & Dohme Corp., priority 2016, dated 2021).

How the values were obtained:
[1] = IV Cassette PK Assay in rats; assay type: in vivo; conditions: rat, male Wistar-Han rats, plasma, read-out: Cassette PK T1/2 (hr), Imidazo-Pyrazinyl Analog (converted)
Procedure: The results were obtained using the following the procedure:
Adult male Wistar-Han rats were fasted overnight and administered a cassette IV dose of mixture of several compounds via a previously implanted catheter in the femoral vein. Animals were allowed access to food 4 h post dose. Blood samples were collected into EDTA-containing tubes at the following time points: 0.03, 0.13, 0.25, 0.5, 1, 2, 4, 8 h post-dose. Blood samples were stored on ice until plasma was harvested by centrifugation. Plasma was transferred to a 96-well plate and stored at −20° C. until analysis. Concentrations of each compound in rat plasma were determined by LC-MS/MS following protein precipitation.

sGC α1/β1 heterodimer = target: T1, sGC α1/β1 heterodimer (Homo sapiens, UniProt Q02108+Q02153); experiment: Cell-Based sGC Functional Assay (CASA Assay), cGMP generation in CHO-K1/sGC cells;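 note: reference Compound A is a published heme-dependent sGC activator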; conditions: maximum cGMP production of Compound A set to 100% activation, read-out: % Act. (percent activation relative to Compound A)
T1 construct: expressed in transfected cells
T1 sequence (Q02108 1-690): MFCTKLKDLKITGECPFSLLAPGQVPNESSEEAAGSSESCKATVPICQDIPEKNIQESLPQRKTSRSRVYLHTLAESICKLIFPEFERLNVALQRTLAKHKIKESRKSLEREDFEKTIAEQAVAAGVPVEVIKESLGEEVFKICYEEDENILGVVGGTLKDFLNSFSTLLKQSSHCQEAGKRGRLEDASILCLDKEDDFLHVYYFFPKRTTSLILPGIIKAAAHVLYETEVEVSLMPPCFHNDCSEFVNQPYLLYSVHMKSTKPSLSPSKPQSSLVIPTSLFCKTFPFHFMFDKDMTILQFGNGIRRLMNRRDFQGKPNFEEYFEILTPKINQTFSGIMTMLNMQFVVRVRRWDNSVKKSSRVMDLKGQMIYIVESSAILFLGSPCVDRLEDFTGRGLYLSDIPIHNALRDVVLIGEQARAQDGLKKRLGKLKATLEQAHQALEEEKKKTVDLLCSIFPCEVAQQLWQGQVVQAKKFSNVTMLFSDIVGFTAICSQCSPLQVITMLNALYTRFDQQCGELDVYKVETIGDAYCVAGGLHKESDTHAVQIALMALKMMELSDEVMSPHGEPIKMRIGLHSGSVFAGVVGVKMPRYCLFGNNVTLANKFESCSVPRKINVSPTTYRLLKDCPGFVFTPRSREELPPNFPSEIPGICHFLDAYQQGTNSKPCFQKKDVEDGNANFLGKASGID
T1 sequence (Q02153 1-619): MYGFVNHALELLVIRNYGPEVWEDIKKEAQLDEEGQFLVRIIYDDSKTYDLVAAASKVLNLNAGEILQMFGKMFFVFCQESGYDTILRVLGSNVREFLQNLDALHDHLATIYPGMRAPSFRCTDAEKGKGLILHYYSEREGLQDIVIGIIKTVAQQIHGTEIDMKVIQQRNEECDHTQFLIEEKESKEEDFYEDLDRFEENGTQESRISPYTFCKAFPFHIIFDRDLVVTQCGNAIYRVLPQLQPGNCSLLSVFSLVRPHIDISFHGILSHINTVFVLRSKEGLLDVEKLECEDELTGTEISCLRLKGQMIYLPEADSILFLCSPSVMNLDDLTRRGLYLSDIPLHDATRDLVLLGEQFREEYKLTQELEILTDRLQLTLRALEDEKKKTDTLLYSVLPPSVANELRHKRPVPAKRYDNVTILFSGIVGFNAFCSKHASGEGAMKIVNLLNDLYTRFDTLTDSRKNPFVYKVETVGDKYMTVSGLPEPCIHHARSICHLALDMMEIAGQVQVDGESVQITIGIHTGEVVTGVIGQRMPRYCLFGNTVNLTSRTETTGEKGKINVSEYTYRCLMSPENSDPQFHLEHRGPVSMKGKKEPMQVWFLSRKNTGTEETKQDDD
In short: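 CHO-K1 cells stably expressing human sGC α1/β1, 4×10^5/mL in EBSS with 5 mM MgCl2, 10 mM HEPES, 0.05% BSA, 0.5 mM IBMX, 2.5% DMSO; compounds 1 h at 37 °C ± 1 μM DETA-NO. cGMP by HTRF, expressed as % of reference Compound A maximum; IP and max fold induction from 4P fit.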

[2] = system: Spontaneously hypertensive rats (SHR); experiment: Acute Efficacy in Spontaneously Hypertensive Rats (SHR), telemetry blood pressure; assay type: in vivo, rat; conditions: single oral gavage
In short: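 Male SHR fitted with aortic telemetry transmitters and recovered 14 days; conscious blood pressure sampled 30 s every 10 min. Single oral gavage dose (vehicle 10% transcutol/20% Cremophor/70% water); hourly SBP change versus prior-day vehicle baseline, reported as maximum peak decrease.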

Compound | Emax (sGC α1/β1 heterodimer) [%] | Maximum peak decrease of systolic blood pressure (SBP) in SHR, Cat. ([2]; P.O. 0.3 mpk) | also measured
CC1(c2ccc(F)cn2)C(=O)Nc2nc(-c3cn4ccnc4c(CCC(F)(F)C(F)(F)F)n3)nc(N)c21 (stereo not shown) |  |  | half-life [1]: 1.41 h
Nc1nc(-c2cn3ccnc3c(CCCC(F)(F)F)n2)nc2c1C(c1ccc(C(F)F)cn1)(C1CC1)C(=O)N2 (stereo not shown) |  |  | half-life [1]: 2.12 h
CC1(c2ccc(Cl)cc2)C(=O)Nc2nc(-c3cn4ncnc4c(CCC(F)(F)F)n3)nc(O)c21 (stereo not shown) [Example 152A, 5-(4-chlorophenyl)-4-hydroxy-5-methyl-2-(8-(3,3,3-trifluoropropyl)-[1,2,4]triazolo[1,5-a]pyrazin-6-yl)-5H-pyrrolo[2,3-d]pyrimidin-6(7H)-one] | 70 |  | Maximum peak decrease of systolic blood pressure (SBP) in SHR, Cat. ([2]; P.O. 3 mpk): B (Category B=SBP in SHRs 20-40 mmHg)
CCCCc1nc(-c2nc(O)c3c(n2)NC(=O)[C@@]3(C)c2ccc(F)cc2)cn2ncnc12 [Example 154A, (S)-2-(8-butyl-[1,2,4]triazolo[1,5-a]pyrazin-6-yl)-5-(4-fluorophenyl)-4-hydroxy-5-methyl-5,7-dihydro-6H-pyrrolo[2,3-d]pyrimidin-6-one] | 100 | B (Category B=SBP in SHRs 20-40 mmHg) | 
CCCCc1nc(-c2nc(O)c3c(n2)NC(=O)C3(C)c2ccc(F)cn2)cn2ncnc12 (stereo not shown) [Example 155B, 2-(8-butyl-[1,2,4]triazolo[1,5-a]pyrazin-6-yl)-5-(5-fluoropyridin-2-yl)-4-hydroxy-5-methyl-5H-pyrrolo[2,3-d]pyrimidin-6(7H)-one] | 159 |  | Maximum peak decrease of systolic blood pressure (SBP) in SHR, Cat. ([2]; P.O. 1 mpk): B (Category B=SBP in SHRs 20-40 mmHg)
CCCCc1nc(-c2nc(O)c3c(n2)NC(=O)C3(C)c2ccc(Cl)c(F)c2)cn2ncnc12 (stereo not shown) [Example 156B, 2-(8-butyl-[1,2,4]triazolo[1,5-a]pyrazin-6-yl)-5-(4-chloro-3-fluorophenyl)-4-hydroxy-5-methyl-5H-pyrrolo[2,3-d]pyrimidin-6(7H)-one] | 102 | C (Category C=SBP in SHRs >40 mmHg) | 
CCCCc1nc(-c2nc(O)c3c(n2)NC(=O)C3(C)c2ccc(F)c(F)c2)cn2ncnc12 (stereo not shown) [Example 158B, 2-(8-butyl-[1,2,4]triazolo[1,5-a]pyrazin-6-yl)-5-(3,4-difluorophenyl)-4-hydroxy-5-methyl-5H-pyrrolo[2,3-d]pyrimidin-6(7H)-one] | 232 | C (Category C=SBP in SHRs >40 mmHg) | 

Further lines, with some results ahead:

Emax (sGC α1/β1 heterodimer) [%] | Compound | Maximum peak decrease of systolic blood pressure (SBP) in SHR, Cat. ([2]; P.O. 0.3 mpk) | also measured
96 | CCCCc1nc(-c2nc(O)c3c(n2)NC(=O)C3(C)c2ccc(Cl)cn2)cn2ncnc12 (stereo not shown) [Example 160A, 2-(8-butyl-[1,2,4]triazolo[1,5-a]pyrazin-6-yl)-5-(5-chloropyridin-2-yl)-4-hydroxy-5-methyl-5H-pyrrolo[2,3-d]pyrimidin-6(7H)-one] | B (Category B=SBP in SHRs 20-40 mmHg) | 
253 | CCCc1nc(-c2nc(O)c3c(n2)NC(=O)C3(C)c2ccc(Cl)cc2)cn2ncnc12 (stereo not shown) [Example 164A, 5-(4-chlorophenyl)-4-hydroxy-5-methyl-2-(8-propyl-[1,2,4]triazolo[1,5-a]pyrazin-6-yl)-5H-pyrrolo[2,3-d]pyrimidin-6(7H)-one] |  | Maximum peak decrease of systolic blood pressure (SBP) in SHR, Cat. ([2]; P.O. 2 mpk): B (Category B=SBP in SHRs 20-40 mmHg)
114 | CCCc1nc(-c2nc(O)c3c(n2)NC(=O)[C@@]3(C)c2ccc(F)cc2)cn2ncnc12 [Example 165A, (S)-5-(4-fluorophenyl)-4-hydroxy-5-methyl-2-(8-propyl-[1,2,4]triazolo[1,5-a]pyrazin-6-yl)-5,7-dihydro-6H-pyrrolo[2,3-d]pyrimidin-6-one] |  | Maximum peak decrease of systolic blood pressure (SBP) in SHR, Cat. ([2]; P.O. 3 mpk): B (Category B=SBP in SHRs 20-40 mmHg)
117 | CCCc1nc(-c2nc(O)c3c(n2)NC(=O)C3(C)c2ccc(Cl)c(F)c2)cn2ncnc12 (stereo not shown) [Example 166B, 5-(4-chloro-3-fluorophenyl)-4-hydroxy-5-methyl-2-(8-propyl-[1,2,4]triazolo[1,5-a]pyrazin-6-yl)-5H-pyrrolo[2,3-d]pyrimidin-6(7H)-one] |  | Maximum peak decrease of systolic blood pressure (SBP) in SHR, Cat. ([2]; P.O. 3 mpk): B (Category B=SBP in SHRs 20-40 mmHg)
176 | CC(C)Cc1nc(-c2ncc3c(n2)NC(=O)[C@@]3(C)c2ccc(F)cc2)cn2ncnc12 [Example 173A, (S)-5-(4-fluorophenyl)-2-(8-isobutyl-[1,2,4]triazolo[1,5-a]pyrazin-6-yl)-5-methyl-5,7-dihydro-6H-pyrrolo[2,3-d]pyrimidin-6-one] |  | Maximum peak decrease of systolic blood pressure (SBP) in SHR, Cat. ([2]; P.O. 1 mpk): A (Category A=SBP in SHRs <20 mmHg)
168 | C[C@@]1(c2ccc(F)cc2)C(=O)Nc2nc(-c3cn4ncnc4c(CCC(F)(F)C(F)(F)F)n3)nc(C(N)=O)c21 [Example 177A, 5-(4-Fluorophenyl)-5-methyl-6-oxo-2-(8-(3,3,4,4,4-pentafluorobutyl)-[1,2,4]triazolo[1,5-a]pyrazin-6-yl)-6,7-dihydro-5H-pyrrolo[2,3-d]pyrimidine-4-carboxamide] |  | Maximum peak decrease of systolic blood pressure (SBP) in SHR, Cat. ([2]; P.O. 1 mpk): C (Category C=SBP in SHRs >40 mmHg)
108 | NC(=O)c1nc(-c2cn3ncnc3c(CCCC(F)(F)F)n2)nc2c1C(c1ccc(C(F)(F)F)cn1)(C1CC1)C(=O)N2 (stereo not shown) [Example 178A] |  | Maximum peak decrease of systolic blood pressure (SBP) in SHR, Cat. ([2]; P.O. 1 mpk): B (Category B=SBP in SHRs 20-40 mmHg)
101 | CC1(c2ccc(C(F)(F)F)cn2)C(=O)Nc2nc(-c3cn4ncnc4c(CCCC(F)(F)F)n3)nc(C(N)=O)c21 (stereo not shown) [Example 179B, 5-methyl-6-oxo-2-(8-(4,4,4-trifluorobutyl)-[1,2,4]triazolo[1,5-a]pyrazin-6-yl)-5-(5-(trifluoromethyl)pyridin-2-yl)-6,7-dihydro-5H-pyrrolo[2,3-d]pyrimidine-4-carboxamide] | B (Category B=SBP in SHRs 20-40 mmHg) | 
